Consider five molecules from patent US20230167062A1, “AMIDE COMPOUND CONTAINING SUBSTITUTED ACETOPHENONE STRUCTURAL FRAGMENTS AND PREPARATION METHOD AND APPLICATION THEREOF” (SHENYANG SINOCHEM AGROCHEMICALS R&D CO., LTD., priority 2019, published 2023).

For one data set, the system named is cucumber downy mildew. The data set is described as follows: In vivo protection activity against cucumber downy mildew (live pot determination). As to conditions: for control effects, Cucumber downy mildew: 400 ppm (Table 2); for control effects on cucumber downy mildew: dose of 400 ppm, spray, inoculated after 24 hours. As to the method: (§1) The test of in vivo protection effect is conducted on various fungal diseases of plants through samples of the compounds of the present invention. The determination results of the fungal activity are shown in the following embodiments.
(§2) The determination method is as follows: the to-be-determined sample of the compound of general formula I obtained above was dissolved with a small amount of solvent (the type of the solvent is, for example, acetone, methanol, DMF, etc., and is selected according to the dissolving ability to the sample; and the volume ratio of the solvent amount to the liquid spray amount is equal to or less than 0.05) by a live pot determination method, and diluted with water containing 0.1% Tween 80 to prepare to-be-determined liquid with required concentration. On a crop sprayer, the to-be-determined liquid was sprayed onto disease host plants (the host plants are standard potted seedlings cultivated in a greenhouse), and the disease was inoculated after 24 hours. According to the characteristics of the disease, the diseased plants that need to be cultivated under temperature control and moisturizing were inoculated and then placed in an artificial climate chamber for cultivation. […] After full onset through control (usually one week), the disease prevention effect of the compound was evaluated.

A further data set deals with wheat powdery mildew. The data set is described as follows: In vivo protection activity against wheat powdery mildew (live pot determination). As to conditions: for control effects on wheat powdery mildew: dose of 400 ppm. As to the method: as §1, §2
Another data set relates to tomato botrytis. As to the kind of experiment: In vivo protection activity against tomato botrytis (live pot determination). As to the method: as §1, §2
A further data set concerns cucumber botrytis. The data set is described as follows: In vivo protection activity against cucumber botrytis (live pot determination). To be noted: 200 ppm. As to the method: as §1, §2
A further data set relates to corn rust. The data set is described as follows: In vivo protection activity against corn rust (live pot determination). To be noted: for control effects, Corn rust: 400 ppm (Table 4); for control effects on corn rust: dose of 400 ppm. As to the method: as §1, §2
Another data set deals with cucumber anthracnose. As to the kind of experiment: In vivo protection activity against cucumber anthracnose (live pot determination). As to conditions: dose of 400 ppm. As to the method: as §1, §2

The melting point is the temperature of the solid-liquid transition. With `Cc1cc(OC(C)C)ccc1C(=O)C(C)(C)NC(=O)c1cccnc1C(F)F` [Compound I-2], the melting point stood at 96.9 °C. Besides, the “control effects, Cucumber downy mildew” value in the data set on cucumber downy mildew was 40. Moreover, the “control effects, Wheat powdery mildew” value with wheat powdery mildew (100 ppm (Table 3)) is reported as 100. For the same molecule, the “control effects, Wheat powdery mildew” value in the data set on wheat powdery mildew (400 ppm (Table 3)) stood at 100.

Regarding `Cc1cc(OC(C)C)ccc1C(=O)C(C)(C)NC(=O)c1cccnc1Cl` [CK2], in the data set with tomato botrytis (25 ppm), the “Control effects on tomato botrytis (%)” value is recorded as 0%. Moreover, the “Control effects on tomato botrytis (%)” value in the data set with tomato botrytis (100 ppm) turned out to be 20%. In addition, in the data set on cucumber downy mildew, the “control effects, Cucumber downy mildew” value was found to be 0 and the “control effects on cucumber downy mildew” value was found to be 0%. The “Control effects on cucumber botrytis (%)” value in the data set with cucumber botrytis turned out to be 0%. For the same molecule, the “control effects, Wheat powdery mildew” value in the data set with wheat powdery mildew (400 ppm (Table 3)) came out at 85. For the same molecule, the “control effects on wheat powdery mildew” value in the data set on wheat powdery mildew stood at 85%. Further, in the data set with corn rust, the “control effects, Corn rust” value turned out to be 0 and the “control effects on corn rust” value turned out to be 0%. For the same molecule, in the data set with cucumber anthracnose, the “control effects on cucumber anthracnose” value was 0%.

With `Cc1cc(OC(C)C)ccc1C(=O)C(C)(C)NC(=O)c1cn(C)nc1C(F)(F)F` [CK3], in the data set on tomato botrytis (25 ppm), the “Control effects on tomato botrytis (%)” value is reported as 20%. Besides, the “Control effects on tomato botrytis (%)” value in the data set on tomato botrytis (100 ppm) stood at 35%. Further, in the data set with cucumber downy mildew, the “control effects, Cucumber downy mildew” value amounted to 0 and the “control effects on cucumber downy mildew” value is on record as 0%. In addition, the “Control effects on cucumber botrytis (%)” value in the data set with cucumber botrytis came to 60%. Moreover, in the data set with wheat powdery mildew (400 ppm (Table 3)), the “control effects, Wheat powdery mildew” value is recorded as 85. For the same molecule, the “control effects on wheat powdery mildew” value with wheat powdery mildew is 85%. For the same molecule, in the data set with corn rust, the “control effects, Corn rust” value is listed as 0 and the “control effects on corn rust” value is on record as 0%. Also, in the data set on cucumber anthracnose, the “control effects on cucumber anthracnose” value was 0%.

With `Cc1cc(OC(C)C)ccc1C(=O)C(C)(C)NC(=O)c1c(C(F)(F)F)nn(C)c1Cl` [CK4], the “Control effects on tomato botrytis (%)” value in the data set with tomato botrytis (25 ppm) was determined as 0%. In addition, the “Control effects on tomato botrytis (%)” value in the data set with tomato botrytis (100 ppm) was found to be 0%. In addition, in the data set with cucumber downy mildew, the “control effects, Cucumber downy mildew” value is on record as 0 and the “control effects on cucumber downy mildew” value was 0%. In addition, the “Control effects on cucumber botrytis (%)” value in the data set on cucumber botrytis is 25%. Moreover, the “control effects, Wheat powdery mildew” value with wheat powdery mildew (400 ppm (Table 3)) stood at 75. Further, the “control effects on wheat powdery mildew” value with wheat powdery mildew is recorded as 75%. In the data set on corn rust, the “control effects, Corn rust” value turned out to be 0 and the “control effects on corn rust” value is listed as 0%. The “control effects on cucumber anthracnose” value in the data set on cucumber anthracnose was 0%.

As for `Cc1cc(OC(C)C)ccc1C(=O)C(C)(C)NC(=O)c1cccnc1C(F)(F)F` [CK1], in the data set on cucumber downy mildew, the “control effects, Cucumber downy mildew” value was 0 and the “control effects on cucumber downy mildew” value was 0%. Further, the “Control effects on cucumber botrytis (%)” value with cucumber botrytis is 0%. Moreover, the “control effects, Wheat powdery mildew” value in the data set on wheat powdery mildew (400 ppm (Table 3)) amounted to 85. Moreover, in the data set on wheat powdery mildew, the “control effects on wheat powdery mildew” value is listed as 85%. In the data set with corn rust, the “control effects, Corn rust” value was 0 and the “control effects on corn rust” value is 0%. Besides, the “control effects on cucumber anthracnose” value in the data set on cucumber anthracnose is listed as 0%.
